Series [1] relates to phosphorylated tau (pTau). The series can be described thus: pTau in Aβ42-treated rat hippocampal slice cultures (early tauopathy model). It is filed as cell-based. Particulars: 5 μM for 4 days. As for the experimental part: (§1) FIG. 4. Enhancing lysosome efficiency with the cathepsin B modulator PADK leads to reductions of multiple types of proteinopathy-related accumulation events. […] Age-matched wild-type mice (wt) and 9-10-month mutant human APP mice, a model of early dementia, treated with or without PADK were assessed for the 4-kDa Δβ peptide, the active form of cathepsin B (act CB), and other proteins in hippocampal samples (C). Similar treatment groups used another APP mouse model at 20-22 months of age to measure clearance of APP carboxyterminal fragments APP-αCTF and APP-βCTF (D). Rat hippocampal slice cultures from the untreated control group (con) and slices treated with submicromolar Δβ42 (early tauopathy model) in the absence or presence of PADK (5 μM for 4 days) were assessed for phosphorylated tau (pTau) and other proteins (E). For a model of early α-synucleinopathy, human A53T α-synuclein transgenic mice, at 7 months old, were studied with or without PADK treatment and assessed for human α-synuclein (α-syn) in TX-100 extracts of hippocampus and for other proteins in hippocampal homogenates (F). Plotted data (±SEM) were compared to neighboring vehicle groups by unpaired t-tests: *p=0.02, **p<0.01, ***p<0.001. APPswind and APP-PS1 mice are described in Butler et al., (2011), the entire content of which is hereby incorporated herein by reference. […]

Series [2] relates to APP-αCTF and APP-βCTF. Description: Clearance of APP carboxyterminal fragments in APP mouse model. It is filed as in vivo. Particulars: PADK-treated transgenic mice, 20-22 months; correlated with augmented active CatB. As for the experimental part:
as §1

In series [3] the test system is intracellular Aβ1-42. Description: Intracellular Aβ1-42 in pyramidal neurons of APPswe/PS1ΔE9 transgenic mice. It is filed as in vivo, mouse. Particulars: PADK-treated APPswe/PS1ΔE9 transgenic mice; CA1. The source says:
FIG. 1. Lysosomal modulation increases the cathepsin B content of lysosomes and reduces intracellular Δβ1-42 in the APPswe/PS1ΔE9 transgenic mouse model of Alzheimer's disease. […] Without wishing to be bound by any scientific theory, the latter steps may involve processing/trafficking of active intermediate (intCB) and mature forms (matCB) from early/late endosomes to lysosomes in order to promote protein degradation (A). […] The increase in organellar cathepsin B enzyme (red) in PADK-treated APPswe/PS1ΔE9 transgenic mice (tg) was associated with a decrease in intracellular Δβ1-42 in the CA1 pyramidal neurons (C). Arrows denote co-localization in lysosomes, capturing intact Δβ1-42 before being degraded by cathepsin B. View-field widths: 12 μm. wt, vehicle-treated wild-type mice.
The lysosomal modulator Z-Phe-Ala-diazomethylketone (PADK) is administered to APPswe/PS1ΔE9 transgenic mice. Low-level PADK enhances cathepsin trafficking and maturation, thereby improving the clearance capacity of lysosomes (FIG. 1). It attenuates both PHF-tau and synaptic decline in the hippocampal slice model of protein accumulation (Bendiske and Bahr, 2003; Butler et al., 2005; Bahr, 2009). […] In PADK-treated transgenic mice, the increase in organellar cathepsin B was associated with a decrease in intracellular Aβ1-42 in pyramidal neurons (FIG. 1C).

For series [4], the system named is bacterial. The series can be described thus: Bacterial cytotoxicity test. It is filed as cell-based. Conditions: tested at up to a 1000 times the IC50 of the toxin mitomycin C.
The test system of series [5] is 11-month Fischer rats. The series can be described thus: Passive avoidance task in 11-month Fischer rats (model of MCI and early dementia). The class given is in vivo, rat. Conditions: 27 mg/kg daily. As for the experimental part: FIG. 2. The cathepsin B modulatory compound PADK improved learning and memory in 11-month Fischer rats, a model of mild cognitive impairment (MCI) and early dementia. A classic passive avoidance task to assess memory utilized a bi-sectioned apparatus consisting of a brightly-lit compartment and a dark compartment separated by a small door. […] In this figure, the female rats were injected daily with vehicle or 27 mg/kg PADK. Following each morning's injection, the rats were placed individually into the bright compartment and, after 10 s, the door was opened through which the rats typically entered immediately (3 min total time in apparatus/rat/day). Panel A: On the seventh injection day, latency time before entering the opened doorway was measured (pre-shock bars, mean±SEM), after which the door was closed to contain the animal in the dark compartment. A mild foot shock of 0.6 mA, 2 s duration, was then administered to the contained rat via the floor grid. Following the next day's injections, rats were again placed in the bright compartment and latency times measured after the door was opened (post-shock bars). […] Brains were removed after the behavior studies in order to assess cathepsin B levels.
In the 11-month Fischer rats, a model of MCI and early dementia, PADK improved passive avoidance memory. […]

Series [6] addresses T1, active cathepsin B (Mus musculus, UniProt P10605).
T1 construct: from tissue; host or cells: brain and CNS regions of mice (PADK-treated mice, A53T transgenic and wild-type mice, C57BL/6 mice)
The series can be described thus: Active cathepsin B staining in PADK-treated mice. The class given is in vivo. Conditions: 18 mg/kg/d×9 days, ip, vs vehicle. As to the method:
FIG. 4. Enhancing lysosome efficiency with the cathepsin B modulator PADK leads to reductions of multiple types of proteinopathy-related accumulation events. […] Age-matched wild-type mice (wt) and 9-10-month mutant human APP mice, a model of early dementia, treated with or without PADK were assessed for the 4-kDa Δβ peptide, the active form of cathepsin B (act CB), and other proteins in hippocampal samples (C). Similar treatment groups used another APP mouse model at 20-22 months of age to measure clearance of APP carboxyterminal fragments APP-αCTF and APP-βCTF (D). Rat hippocampal slice cultures from the untreated control group (con) and slices treated with submicromolar Δβ42 (early tauopathy model) in the absence or presence of PADK (5 μM for 4 days) were assessed for phosphorylated tau (pTau) and other proteins (E). For a model of early α-synucleinopathy, human A53T α-synuclein transgenic mice, at 7 months old, were studied with or without PADK treatment and assessed for human α-synuclein (α-syn) in TX-100 extracts of hippocampus and for other proteins in hippocampal homogenates (F). Plotted data (±SEM) were compared to neighboring vehicle groups by unpaired t-tests: *p=0.02, **p<0.01, ***p<0.001. APPswind and APP-PS1 mice are described in Butler et al., (2011), the entire content of which is hereby incorporated herein by reference.

Series [7] has as its system PHF-tau. Conditions: cited from earlier work.
Where [8] appears, read: low-level PADK, hippocampal slice model of protein accumulation.

Each structure is given as a SMILES string.

T1 sequence (P10605 80-333 limits assumed): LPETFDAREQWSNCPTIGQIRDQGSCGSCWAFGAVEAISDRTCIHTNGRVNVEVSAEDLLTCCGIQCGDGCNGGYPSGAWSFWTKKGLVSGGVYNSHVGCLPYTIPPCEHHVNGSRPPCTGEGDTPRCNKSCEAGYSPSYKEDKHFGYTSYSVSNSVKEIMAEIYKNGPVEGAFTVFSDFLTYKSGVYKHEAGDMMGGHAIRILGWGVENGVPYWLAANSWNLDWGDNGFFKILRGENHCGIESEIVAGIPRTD

For the molecule `C[C@H](NC(=O)[C@H](Cc1ccccc1)NC(=O)OCc1ccccc1)C(=O)C=[N+]=[N-]` [PADK, N-carbobenzyloxy-L-phenylalanyl-L-alanyl-diazomethylketone], in series [1], the pTau accumulation entry is reported as “significant decrease” and the synaptic protection result is “evidence of synaptic protection”. Moreover, in series [2], the “APP carboxy-terminal fragments (αCTF and βCTF)” value was “reductions”. For the same molecule, in series [3], the “intracellular Aβ1-42 in pyramidal neurons” value is listed as “decrease”. Moreover, the bacterial cytotoxicity entry in series [4] was “did not cause bacterial cytotoxicity”. The “passive avoidance behavior (latency post-shock)” value in series [5] (day after 0.6 mA foot shock, vs vehicle, P=0.016) is recorded as “improve passive avoidance behavior”. Further, the “latency time before entering the opened doorway, pre-shock” value in series [5] (seventh injection day, vs vehicle-treated aged rats) was “no difference”. In addition, the “levels of active cathepsin B” value in series [6] is “increased levels of active cathepsin B”. Also, in series [7] (following PADK-mediated tau clearance), the “microtubule stability markers, transport function, and synaptic proteins” value is listed as “recovery”. In series [7] (setting [8]), the PHF-tau entry is reported as “attenuates” and the synaptic decline entry was “attenuates”. In addition, the “tau aggregates and tau-related pathology” value in series [7] (when CatB activity was increased with PADK) is listed as “Reduction”.

Source of the values: US20160136229A1, “MATERIALS FOR POSITIVE CATHEPSIN B MODULATION AND METHODS OF USE FOR TREATING MILD COGNITIVE IMPAIRMENT (MCI), EARLY DEMENTIA, A-SYNUCLEINOPATHY, TRAUMATIC BRAIN INJURY, CARDIOMYOPATHY, EYE DISEASE AND SKIN DAMAGE” (University of North Carolina at Pembroke, priority 2013, published 2016).
